42 molecules from ChEMBL document CHEMBL1123761, “Inhibition of the mammalian beta-lactamase renal dipeptidase (dehydropeptidase-I) by (Z)-2-(acylamino)-3-substituted-propenoic acids” (J Med Chem, 1987) can be followed below.

This experiment deals with T1, Dipeptidase 1 (Sus scrofa, UniProt P22412).
T1 sequence (P22412 whole entry): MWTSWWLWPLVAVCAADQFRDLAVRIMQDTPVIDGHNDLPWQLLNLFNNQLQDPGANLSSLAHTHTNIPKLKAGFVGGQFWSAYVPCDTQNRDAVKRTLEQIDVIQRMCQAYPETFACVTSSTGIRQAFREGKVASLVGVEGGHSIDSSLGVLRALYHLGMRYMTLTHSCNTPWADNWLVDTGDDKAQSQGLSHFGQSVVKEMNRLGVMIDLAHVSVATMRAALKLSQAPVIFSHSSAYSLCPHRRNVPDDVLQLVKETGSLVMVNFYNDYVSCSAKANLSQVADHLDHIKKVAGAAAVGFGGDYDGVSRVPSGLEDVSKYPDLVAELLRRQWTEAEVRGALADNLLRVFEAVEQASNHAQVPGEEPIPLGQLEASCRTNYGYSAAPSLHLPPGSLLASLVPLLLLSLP
The experiment in a line: Inhibitory activity against beta-lactamase renal dipeptidase.
As for `CCCCCCCCC/C=C(\NC(=O)C1CC1(C)C)C(=O)O` (configuration not stated), affinity was put at a Ki of 110 nM.

`C/C=C(\NC(=O)CCCCCCCCCC)C(=O)O` came in with a Ki of 19000 nM.

The molecule `CC1(C)CC1C(=O)N/C(=C\CCCCCCC[N+](C)(C)Cc1ccccc1)C(=O)[O-]` (configuration not stated) yielded a Ki of 450 nM.

As to `CCCCCC/C=C(\NC(=O)C1CC1(C)C)C(=O)O` (configuration not stated), the inhibition constant Ki came out at 160 nM.

Molecule `CC1(C)CC1C(=O)N/C(=C\CCCCSc1ncccc1O)C(=O)O` (configuration not stated) displayed a Ki of 20 nM.

Consider `C/C=C(\NC(=O)C1CCCCCC1)C(=O)O`, for which affinity was put at a Ki of 12000 nM.

Molecule `C=CCNCCCCC/C=C(\NC(=O)C1CC1(C)C)C(=O)O` (configuration not stated) gave a Ki of 870 nM.

The molecule `C/C=C(\NC(=O)[C@H]1[C@@H]2CCCC[C@@H]21)C(=O)O` registered a Ki of 4200 nM.

For the molecule `CCCCCCC/C=C(\NC(=O)C1CC1(C)C)C(=O)O` (configuration not stated), the inhibition constant Ki is 96 nM.

In turn, `CC1(C)CC1C(=O)N/C(=C\CCCCC#N)C(=O)O` (configuration not stated) yielded a Ki of 210 nM.

For `CN(CCCC/C=C(\NC(=O)C1CC1(C)C)C(=O)O)CC(=O)O` (configuration not stated), the affinity corresponds to a Ki of 560 nM.

As for `CC1(C)C[C@@H]1C(=O)N/C(=C\CCCCC[N+](C)(C)C)C(=O)[O-]`, the Ki stood at 650 nM.

On to `CN(CCCCC/C=C(\NC(=O)C1CC1(C)C)C(=O)O)CC(=O)O` (configuration not stated), for which the Ki amounted to 290 nM.

`C/C=C(\NC(=O)CC(C)(C)C)C(=O)O` yielded an inhibition constant (Ki) of 20000 nM.

Regarding `C/C=C(\NC(=O)[C@@H]1C[C@H]1CC)C(=O)O`, the Ki turned out to be 1600 nM.

Take `CC1(C)CC1C(=O)N/C(=C\CCCCCCC[N+](C)(C)C)C(=O)[O-]` (configuration not stated): the affinity corresponds to a Ki of 570 nM.

Regarding `CSCCCCC/C=C(\NC(=O)C1CC1(C)C)C(=O)O` (configuration not stated), affinity was put at a Ki of 150 nM.

Regarding `CC1(C)C[C@@H]1C(=O)N/C(=C\CCCCSC[C@H](N)C(=O)O)C(=O)O` (stereo in doubt; 176) [CILASTATIN], the Ki came out at 110 nM.

As for `C/C=C(\NC(=O)c1ccccc1)C(=O)O`, the Ki is 70000 nM.

The molecule `COCCCCC/C=C(\NC(=O)C1CC1(C)C)C(=O)O` (configuration not stated) came in with a Ki of 180 nM.

`CC1(C)CC1C(=O)N/C(=C\CCCCC[N+](C)(C)CCO)C(=O)[O-]` (configuration not stated) returned a Ki of 910 nM.

`C/C=C(\NC(=O)C1CC1(Cl)Cl)C(=O)O` (configuration not stated) gave a Ki of 80 nM.

Molecule `C/C=C(\NC(=O)CCCNC(C)=O)C(=O)O` had a Ki of 102000 nM.

`CCOC(=S)SCCCCC/C=C(\NC(=O)C1CC1(C)C)C(=O)O` (configuration not stated) displayed a Ki of 44 nM.

Turning to `CC1(C)CC1C(=O)N/C(=C\CCCSCC(N)C(=O)O)C(=O)O` (configuration not stated), the Ki turned out to be 270 nM.

Regarding `C/C=C(\NC(=O)C1CC(C)(C)C1)C(=O)O`, the affinity corresponds to a Ki of 11200 nM.

In turn, `CC1(C)CC1C(=O)N/C(=C\CCCCCNCCP(=O)(O)O)C(=O)O` (configuration not stated) gave a Ki of 580 nM.

Regarding `CNC(CSCCCC/C=C(\NC(=O)[C@H]1CC1(C)C)C(=O)O)C(=O)O` (some centres not stated), affinity was put at a Ki of 150 nM.

Molecule `CC1(C)CC1C(=O)N/C(=C\CCCCCO)C(=O)O` (configuration not stated) had a Ki of 230 nM.

In the case of `CC1(C)CC1C(=O)N/C(=C\CCCCCNC=N)C(=O)O` (configuration not stated), the Ki stood at 780 nM.

In turn, `CC1(C)CC1C(=O)N/C(=C\CC(F)(F)F)C(=O)O` (configuration not stated) gave an inhibitory constant (Ki) of 240 nM.

`CCCCCCCC/C=C(\NC(=O)C1CC1(C)C)C(=O)O` (configuration not stated) had a Ki of 110 nM.

On to `C/C=C(\NC(=O)CCCCCBr)C(=O)O`, for which the Ki stood at 19000 nM.

The molecule `CCCCC/C=C(\NC(=O)[C@@H]1CC1(C)C)C(=O)O` gave an inhibitory constant (Ki) of 8800 nM.

With `C/C=C(\NC(=O)CCCNC(=O)CC(C)C)C(=O)O`, the Ki was 52000 nM.

`CC1(C)CC1C(=O)N/C(=C\CCCCC(=O)O)C(=O)O` (configuration not stated) returned an inhibition constant (Ki) of 58 nM.

For the molecule `C/C=C(\NC(=O)c1cccc(Cl)c1)C(=O)O`, the affinity, expressed as Ki, was 22000 nM.

For the molecule `C/C=C(\NC(=O)C1CC12CC2)C(=O)O` (configuration not stated), the Ki is 1600 nM.

Molecule `CC1(C)CC1C(=O)N/C(=C\CCC(=O)O)C(=O)O` (configuration not stated) had a Ki of 140 nM.

`CC1(C)CC1C(=O)N/C(=C\CCCCCC/C=C(\NC(=O)C1CC1(C)C)C(=O)O)C(=O)O` (configuration not stated) had a Ki of 92 nM.

In turn, `C#CCNCCCCC/C=C(\NC(=O)C1CC1(C)C)C(=O)O` (configuration not stated) displayed a Ki of 740 nM.

Molecule `C/C=C(\NC(=O)CCCCCCCCCCC)C(=O)O` registered a Ki of 35000 nM.
